Results taken from ChEMBL document CHEMBL4321785, “Challenges and Opportunities for Therapeutics Targeting the Voltage-Gated Sodium Channel Isoform NaV1.7” (J Med Chem, 2019).

Legend:
[1] = Plasma concentration in mouse model of CFA-induced pain at 30 mg/kg, po during Hargreaves test; format: ADME, organism-based; conditions: in vivo
[2] = molecular target: Sodium channel protein type 4 subunit alpha (Homo sapiens, UniProt P35499); test: Binding affinity to human recombinant Nav1.4 by radioligand binding assay
[3] = Ratio of unbound plasma concentration in mouse model of STZ-induced pain measured to Kd for binding affinity to mouse Nav1.7 by radioligand binding assay; format: ADME; conditions: in vivo
[4] = molecular target: Sodium channel protein type 5 subunit alpha (Homo sapiens, UniProt Q14524); test: Binding affinity to human recombinant Nav1.5 by radioligand binding assay
[5] = Ratio of plasma concentration in mouse model of pain at 30 mg/kg, po during hot plate test to IC50 for inhibition of mouse Nav1.7 expressed in HEK293 cells by electrophysiology assay; format: organism-based; conditions: in vivo
[6] = Ratio of unbound plasma concentration in mouse model of formalin-induced pain to Kd for binding affinity to mouse Nav1.7 by radioligand binding assay; format: ADME; conditions: in vivo
[7] = Ratio of unbound plasma concentration in mouse model of inherited erythromelalgia to Kd for binding affinity to recombinant human Nav1.7 by radioligand binding assay; format: ADME; conditions: in vivo
Homo sapiens [8] = species: Homo sapiens; test: Selectivity ratio of Kd for binding affinity to human recombinant Nav1.6 by radioligand binding assay to Kd for binding affinity to human recombinant Nav1.7 by radioligand binding assay
[9] = Ratio of plasma concentration in mouse model of CFA-induced pain at 30 mg/kg, po during Hargreaves test to IC50 for inhibition of mouse Nav1.7 expressed in HEK293 cells by electrophysiology assay; format: organism-based; conditions: in vivo
[10] = molecular target: Sodium channel protein type 10 subunit alpha (Mus musculus, UniProt Q6QIY3); test: Binding affinity to mouse Nav1.8 […] by radioligand binding assay
[11] = molecular target: Sodium channel protein type 1 subunit alpha (Homo sapiens, UniProt P35498); test: Binding affinity to human recombinant Nav1.1 by radioligand binding assay
Homo sapiens [12] = species: Homo sapiens; test: Selectivity ratio of Kd for binding affinity to human recombinant Nav1.5 by radioligand binding assay to Kd for binding affinity to human recombinant Nav1.7 by radioligand binding assay
[13] = Ratio of unbound plasma concentration in mouse model of CFA-induced cold allodynia to Kd for binding affinity to mouse Nav1.7 by radioligand binding assay; format: ADME; conditions: in vivo
Homo sapiens [14] = species: Homo sapiens; test: Selectivity ratio of Kd for binding affinity to human recombinant Nav1.2 by radioligand binding assay to Kd for binding affinity to human recombinant Nav1.7 by radioligand binding assay
[15] = Plasma concentration in mouse model of pain at 30 mg/kg, po during tail immersion test; format: ADME, organism-based; conditions: in vivo
[16] = Ratio of plasma concentration in mouse model of pain at 30 mg/kg, po during tail immersion test to IC50 for inhibition of mouse Nav1.7 expressed in HEK293 cells by electrophysiology assay; format: organism-based; conditions: in vivo
[17] = molecular target: Sodium channel protein type 3 subunit alpha (Homo sapiens, UniProt Q9NY46); test: Binding affinity to human recombinant Nav1.3 by radioligand binding assay
Homo sapiens [18] = species: Homo sapiens; test: Selectivity ratio of Kd for binding affinity to human recombinant Nav1.1 by radioligand binding assay to Kd for binding affinity to human recombinant Nav1.7 by radioligand binding assay
[19] = Plasma concentration in mouse model of pain at 30 mg/kg, po during hot plate test; format: ADME, organism-based; conditions: in vivo
Homo sapiens [20] = species: Homo sapiens; test: Selectivity ratio of Kd for binding affinity to human recombinant Nav1.3 by radioligand binding assay to Kd for binding affinity to human recombinant Nav1.7 by radioligand binding assay
[21] = Unbound fraction in mouse plasma; format: ADME, cell-free
[22] = molecular target: Sodium channel protein type 2 subunit alpha (Homo sapiens, UniProt Q99250); test: Binding affinity to human recombinant Nav1.2 by radioligand binding assay
[23] = molecular target: Sodium channel protein type 9 subunit alpha (Mus musculus, UniProt Q62205); test: Binding affinity to mouse Nav1.7 by radioligand binding assay
[24] = molecular target: Sodium channel protein type 8 subunit alpha (Homo sapiens, UniProt Q9UQD0); test: Binding affinity to human recombinant Nav1.6 by radioligand binding assay
Homo sapiens [25] = species: Homo sapiens; test: Selectivity ratio of Kd for binding affinity to human recombinant Nav1.4 by radioligand binding assay to Kd for binding affinity to human recombinant Nav1.7 by radioligand binding assay

Chain of Sodium channel protein type 10 subunit alpha (Q6QIY3 whole entry): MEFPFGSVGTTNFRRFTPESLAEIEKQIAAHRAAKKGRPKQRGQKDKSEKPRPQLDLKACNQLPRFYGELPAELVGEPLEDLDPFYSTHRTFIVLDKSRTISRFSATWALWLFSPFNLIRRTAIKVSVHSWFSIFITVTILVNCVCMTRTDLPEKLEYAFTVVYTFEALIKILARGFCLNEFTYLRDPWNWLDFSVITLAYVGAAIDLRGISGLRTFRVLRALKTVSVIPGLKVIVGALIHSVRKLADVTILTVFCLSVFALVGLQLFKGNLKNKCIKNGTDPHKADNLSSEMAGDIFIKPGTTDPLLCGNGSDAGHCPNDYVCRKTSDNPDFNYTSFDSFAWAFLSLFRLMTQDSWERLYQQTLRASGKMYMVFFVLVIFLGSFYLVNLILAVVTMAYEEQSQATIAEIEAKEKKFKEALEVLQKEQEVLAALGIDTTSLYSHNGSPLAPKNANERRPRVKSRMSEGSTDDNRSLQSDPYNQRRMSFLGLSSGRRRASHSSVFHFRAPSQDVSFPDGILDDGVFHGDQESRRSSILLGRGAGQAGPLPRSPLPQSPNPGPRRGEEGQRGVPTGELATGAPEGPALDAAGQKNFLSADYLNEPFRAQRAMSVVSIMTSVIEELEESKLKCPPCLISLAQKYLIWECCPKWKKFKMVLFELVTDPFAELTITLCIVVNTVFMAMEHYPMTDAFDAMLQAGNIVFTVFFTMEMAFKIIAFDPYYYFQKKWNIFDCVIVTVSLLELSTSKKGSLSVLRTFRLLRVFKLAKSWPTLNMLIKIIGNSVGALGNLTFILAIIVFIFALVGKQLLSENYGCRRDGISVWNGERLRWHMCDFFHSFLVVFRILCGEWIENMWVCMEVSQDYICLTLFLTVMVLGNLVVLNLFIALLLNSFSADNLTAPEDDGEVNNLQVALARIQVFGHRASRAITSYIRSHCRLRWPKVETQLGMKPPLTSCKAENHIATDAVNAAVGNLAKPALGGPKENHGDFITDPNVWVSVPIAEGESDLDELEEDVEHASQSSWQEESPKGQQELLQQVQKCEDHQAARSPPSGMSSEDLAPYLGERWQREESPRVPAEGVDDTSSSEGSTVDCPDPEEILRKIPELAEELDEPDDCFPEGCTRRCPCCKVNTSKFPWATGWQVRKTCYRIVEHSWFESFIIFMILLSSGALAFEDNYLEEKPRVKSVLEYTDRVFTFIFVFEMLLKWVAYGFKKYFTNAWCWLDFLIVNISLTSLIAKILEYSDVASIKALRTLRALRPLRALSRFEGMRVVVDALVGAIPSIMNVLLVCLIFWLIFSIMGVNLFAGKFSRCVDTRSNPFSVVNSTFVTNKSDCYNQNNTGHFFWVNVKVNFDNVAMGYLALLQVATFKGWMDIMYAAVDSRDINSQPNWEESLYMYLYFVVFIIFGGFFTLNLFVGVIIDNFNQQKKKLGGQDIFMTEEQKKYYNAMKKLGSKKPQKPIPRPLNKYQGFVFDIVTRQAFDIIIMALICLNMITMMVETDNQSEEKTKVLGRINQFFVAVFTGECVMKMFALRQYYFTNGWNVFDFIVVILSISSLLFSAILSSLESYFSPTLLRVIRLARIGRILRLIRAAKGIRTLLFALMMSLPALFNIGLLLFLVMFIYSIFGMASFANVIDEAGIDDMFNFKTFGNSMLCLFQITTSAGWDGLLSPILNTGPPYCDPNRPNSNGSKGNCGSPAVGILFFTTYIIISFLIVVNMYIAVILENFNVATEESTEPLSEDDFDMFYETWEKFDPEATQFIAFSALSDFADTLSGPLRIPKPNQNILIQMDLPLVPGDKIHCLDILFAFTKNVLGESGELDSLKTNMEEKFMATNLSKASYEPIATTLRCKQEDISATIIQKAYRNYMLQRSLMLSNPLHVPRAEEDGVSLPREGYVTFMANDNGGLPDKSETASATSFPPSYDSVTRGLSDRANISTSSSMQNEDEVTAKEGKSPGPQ
Chain of Sodium channel protein type 8 subunit alpha (Q9UQD0 whole entry): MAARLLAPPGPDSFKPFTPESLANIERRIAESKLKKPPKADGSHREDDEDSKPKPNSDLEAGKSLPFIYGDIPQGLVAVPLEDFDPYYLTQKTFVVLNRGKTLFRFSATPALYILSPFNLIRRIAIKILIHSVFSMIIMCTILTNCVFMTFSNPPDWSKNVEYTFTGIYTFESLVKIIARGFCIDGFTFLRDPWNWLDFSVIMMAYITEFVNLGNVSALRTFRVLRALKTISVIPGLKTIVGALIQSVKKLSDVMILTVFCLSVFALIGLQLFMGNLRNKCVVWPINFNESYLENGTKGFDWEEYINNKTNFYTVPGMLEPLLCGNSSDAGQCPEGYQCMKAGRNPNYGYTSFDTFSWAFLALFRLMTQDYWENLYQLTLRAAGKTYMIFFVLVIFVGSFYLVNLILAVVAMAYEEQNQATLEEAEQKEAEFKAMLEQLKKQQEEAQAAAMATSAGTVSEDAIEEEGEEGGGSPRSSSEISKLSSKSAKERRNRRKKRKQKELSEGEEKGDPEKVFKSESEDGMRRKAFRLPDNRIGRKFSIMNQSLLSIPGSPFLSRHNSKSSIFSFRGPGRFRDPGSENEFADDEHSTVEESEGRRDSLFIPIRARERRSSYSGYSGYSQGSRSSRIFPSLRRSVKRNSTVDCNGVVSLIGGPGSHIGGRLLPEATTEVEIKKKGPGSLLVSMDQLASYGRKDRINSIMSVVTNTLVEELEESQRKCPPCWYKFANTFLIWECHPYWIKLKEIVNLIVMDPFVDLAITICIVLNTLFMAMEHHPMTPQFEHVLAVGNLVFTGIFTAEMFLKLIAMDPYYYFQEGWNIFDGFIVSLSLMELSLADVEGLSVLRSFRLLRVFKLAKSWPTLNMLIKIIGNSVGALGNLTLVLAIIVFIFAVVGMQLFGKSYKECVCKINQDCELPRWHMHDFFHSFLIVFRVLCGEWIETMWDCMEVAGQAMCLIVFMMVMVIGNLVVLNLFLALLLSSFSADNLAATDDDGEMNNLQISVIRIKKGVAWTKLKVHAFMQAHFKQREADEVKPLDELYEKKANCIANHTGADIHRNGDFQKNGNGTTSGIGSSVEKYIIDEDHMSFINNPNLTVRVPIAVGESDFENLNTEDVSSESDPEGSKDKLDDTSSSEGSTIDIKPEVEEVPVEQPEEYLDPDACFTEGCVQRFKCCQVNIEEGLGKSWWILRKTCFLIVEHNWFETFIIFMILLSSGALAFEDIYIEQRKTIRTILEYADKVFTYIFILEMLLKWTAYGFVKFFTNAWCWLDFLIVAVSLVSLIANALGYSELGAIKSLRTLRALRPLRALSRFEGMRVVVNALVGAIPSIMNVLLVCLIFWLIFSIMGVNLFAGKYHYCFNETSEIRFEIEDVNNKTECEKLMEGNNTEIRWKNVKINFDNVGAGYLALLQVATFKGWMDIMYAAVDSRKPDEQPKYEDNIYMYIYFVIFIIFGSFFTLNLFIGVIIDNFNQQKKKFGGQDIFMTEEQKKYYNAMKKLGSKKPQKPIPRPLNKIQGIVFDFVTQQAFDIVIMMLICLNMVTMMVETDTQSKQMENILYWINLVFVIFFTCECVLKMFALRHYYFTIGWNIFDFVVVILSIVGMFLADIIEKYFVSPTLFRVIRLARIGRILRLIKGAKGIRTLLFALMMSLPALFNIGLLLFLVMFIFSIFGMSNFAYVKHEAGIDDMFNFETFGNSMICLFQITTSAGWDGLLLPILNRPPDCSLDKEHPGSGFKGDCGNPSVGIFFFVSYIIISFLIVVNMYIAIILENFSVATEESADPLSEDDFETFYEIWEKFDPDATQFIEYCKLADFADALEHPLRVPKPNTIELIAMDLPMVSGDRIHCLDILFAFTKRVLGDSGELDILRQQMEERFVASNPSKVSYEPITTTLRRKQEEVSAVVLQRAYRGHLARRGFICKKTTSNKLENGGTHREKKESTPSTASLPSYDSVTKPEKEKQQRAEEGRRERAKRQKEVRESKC

Structure (SMILES): CS(=O)(=O)NC(=O)c1cc(C2CC2)c(OCC2CCN(Cc3cc(C(F)(F)F)ccc3Cl)CC2)cc1F
- concentration [1]: 16.1 µM
- Kd [2]: 0.028 µM
- Ratio [3]: 12
- Kd [4]: 0.37 µM
- Ratio [5]: 10
- Ratio [6]: 5.5
- Ratio [7]: 0.6
- Ratio Ki (Homo sapiens [8]): 60
- Ratio [9]: 15
- Kd [10]: 13 µM
- Kd [11]: 0.14 µM
- Ratio Ki (Homo sapiens [12]): 100
- Ratio [13]: 7.5
- Ratio Ki (Homo sapiens [14]): 18
- concentration [15]: 10.5 µM
- Ratio [16]: 10
- Kd [17]: 0.18 µM
- Ratio Ki (Homo sapiens [18]): 40
- concentration [19]: 10.5 µM
- Ratio Ki (Homo sapiens [20]): 51
- fraction unbound [21]: 0.002
- Kd [22]: 0.064 µM
- Kd [23]: 0.0021 µM
- Kd [24]: 0.21 µM
- Ratio Ki (Homo sapiens [25]): 8
